From patent publication US8742082B2, “Compositions and methods for influencing satiety, lipid metabolism, and fat utilization” (Nestec S.A., priority 2008, dated 2014)

Tested on: Fatty Acid Synthase (FAS 1)
Assay: Real-time PCR gene expression in peripheral tissues: FAS
Format: in vivo
Details: liver; C57bl6j mice, high fat diet, 100 mg/kg/body weight in diet, 5 weeks
Description: The expression of 45 genes was measured by real-time PCR in peripheral tissues to identify genes that were differentially expressed in response to oral administration of oleoylethanolamide (OEA) or a non-hydrolysable OEA analog (KDS 5104), which affect satiety, lipid metabolism, fat utilization, food intake, and body fat mass.
Animals, diet, and experimental design. Adult male C57bl6j mice purchased at 8 weeks of age were individually housed and maintained ad libitum on high fat diet and water for 2 weeks. Seven mice were randomly allocated in 3 groups and fed with a high fat diet (lipids represented 50% of daily energy) for 2 weeks. […]
RNA extraction and gene expression. […] The RNA concentration was determined on nanodrop from the absorbance at 260 nm. […] Real-time quantitative PCR (RT-qPCR) were performed on cDNA obtained as described above using a high through put system (Biomek 3000, Beckman & Coulter, Fullerton, USA) and a Lightcycler 480 (Roche/Hitachi, Basel, Switzerland) with SYBR Green Master mix+kit (Eurogentec, Philadelphia, USA). […] Values were expressed as ratio of RNA levels relative to control mice (diets with 0 mg of OEA/kg/body weight) using ΔΔ(Ct) (Livak K J & Schmittgen T D, 2001, Methods 25:402-8). Gene expression of the following genes was measured (abbreviation and GenBank Accession shown in parentheses). […]

For CCCCCCCC/C=C\CCCCCCCC(=O)NCCO [OEA, N-oleoyl-ethanolamide], the “FAS l, ratio of RNA levels relative to control mice” value was 1.65.
